The text below walks through data of US20240196946A1, “METABOLICALLY MODIFIED VANILLA BEANS AND METHODS FOR PRODUCING SAME” (VANILLA TECHNOLOGIES LTD., priority 2021, published 2024).

For assay [1], the system named is vanilla beans. The experiment in a line: Vanillin content analysis by spectrophotometry of treated, cured vanilla beans. Also noted: species or system Vanilla planifolia. As to conditions: relative to water control; FIG. 1; concentrations as in Table 1. How it is done: Target chemical compounds (set forth in table 1 below) were dissolved in water and pH adjusted to pH-7. Green beans cut into 1 cm pieces were placed in a 50 ml tube or intact beans placed in a bucket. A 10 ml solution containing one of the compounds indicated in Table 1 dissolved in water and 0.1% of each of the four surfactants tween 20, tween 80, span 20, and span 80 was added per each bean. The beans were incubated with the solution for 0.5-36 hours (e.g. overnight) at room temperature. The solution was the filtered out, the beans washed, and placed in a drying chamber with controlled temperature and humidity conditions to provide killing and curing as known in the art. The beans were weighted daily and at a 25-30% of their original weight, subjected to vanillin content analysis by spectrophotometry, as well as to a flavor test by a sensory panel.

In assay [2] the test system is Vanilla planifolia beans. The experiment in a line: GC-MS headspace (SPME) analysis of treated vanilla beans (Example 2). As to conditions: for Phenylethyl Alcohol and 3-Phenyl-2-propenoic acid methyl ester / compounds giving a vinegar anisic and creamy flavor (acetic acid, creosol and 2,3-Butanediol): FIG. 3E, glutathione results not shown; for vanillin levels: GC-MS headspace vs control, FIG. 3A-3E; for constituents delivering vinegar anisic and floral flavors (acetic acid, creosol and acetoin): 3C. An excerpt: The treated vanilla beans were further analyzed by Gas Chromatography-Mass Spectrometry (GC-MS) in headspace mode with solid phase micro extraction (SPME) fiber. Compound identification was done by retention index and mass spectra. Compound flavor was obtained by searching a compound name in the following databases: https://pubchem.ncbi.nlm.nih.gov/ and […].com/.

`N[C@@H](CCC(=O)N[C@@H](CS)C(=O)NCC(=O)O)C(=O)O` [L- glutathione]: in assay [1], the “vanillin content (abundance of vanillin)” value was “reduced vanillin content”. In assay [2], the “Phenylethyl Alcohol and 3-Phenyl-2-propenoic acid methyl ester” value is “induced the formation”; the “compounds giving a vinegar anisic and creamy flavor (acetic acid, creosol and 2,3-Butanediol)” value is recorded as “reduced abundance”; the vanillin levels result is reported as “increase”.

Take `N[C@@H](Cc1ccccc1)C(=O)O` [L-Phenylalanine]: the “vanillin content (abundance of vanillin)” value in assay [1] was “reduced vanillin content”. Also, in assay [2], the “Phenylethyl Alcohol and 3-Phenyl-2-propenoic acid methyl ester” value is listed as “induced the formation”; the “compounds giving a vinegar anisic and creamy flavor (acetic acid, creosol and 2,3-Butanediol)” value is given as “reduced abundance”; the vanillin levels entry is given as “increase”.

Take `CC(=O)C(=O)O` [Pyruvic acid]: in assay [2] (FIG. 3D), the “acetic acid, 2,3-Butanediol and acetoin” value is “formation”; the “level of compounds giving anisic and floral flavors (creosol and benzeneacetaldehyde)” value is recorded as “decreasing”. For the same molecule, in assay [2], the vanillin levels entry is on record as “increase”.

`O=C(O)c1ccccc1O` [Salicylic acid]: the “vanillin content (abundance of vanillin)” value in assay [1] was “large increase”. In addition, in assay [2] (FIG. 3B), the “levels of constituents resulting in a nutty flavor (3-hydroxy-Benzaldehyde)” value is “increased”; the “constituents delivering vinegar anisic and floral flavors (acetic acid, creosol and acetoin)” value is “decrease”. In assay [2], the vanillin levels entry is “marked increase”.

On to Chitosan, for which the “constituents delivering vinegar anisic and floral flavors (acetic acid, creosol and acetoin)” value in assay [2] (FIG. 3B) is listed as “decrease”. For the same molecule, in assay [2] (FIG. 3C), the “levels of constituents delivering a nutty coffee flavor (3-hydroxy-Benzaldehyde and 2-methyl-Butanal)” value is “increased”. In addition, the vanillin levels entry in assay [2] is reported as “milder increase”.
